The values below come from patent US20250332139A1, “PS[…] AND THEIR USE FOR TREATING […] AND NE[…] DISORDERS” (Transcend Therapeutics, Inc., priority 2021, published 2025).

In experiment [1] the test system is rats. Put plainly: Reserpine-induced fibromyalgia model, von Frey test. Format: in vivo, rat. The conditions noted are these: methylone 15 mg/kg IP 30 min before vonFrey test, day 4.
In experiment [2] the target is T1, serotonin transporter (SERT) (Rattus norvegicus, UniProt P31652).
T1 construct: from tissue; synaptosomes for uptake and release
Put plainly: Competitive radioligand binding, [3H]citalopram, rat brain lysates. How it is done:
Radioligands used were: [^3H] Citalopram (PerkinElmer NET1039250UC); [^3H] Nisoxetine (PerkinElmer NET1084250UC); [^3H] WIN35428 (PerkinElmer NET1033250UC). […] Rat brains were dissected and tissue was homogenized in cold lysis buffer, centrifged at 100×g for 2 min and the supernatant was placed in a fresh tube. Supernatant was centrifuged at 13,000×g for 10 min at 4° C. to re-pellet the cell lysate. The pellet was resuspended in fresh wash buffer (50 mM Tris-HCl; 5 mM MgCl2; 5 mM EDTA) and centrifuged a third time. The pellet was then resuspended in wash buffer containing 10% sucrose as a cryoprotectant, divided into aliquots (0.3 mL) and stored at −80° C. A sample of the homogenate was analyzed for protein content using the SIGMA® BCA assay. On the day of the assay, the membrane preparation was thawed, and the pellet resuspended in final assay buffer. […] To each well was added 150 μL membranes, 50 μL of non-specific compound or buffer and 50 μL radioligand solution in buffer. […] Ki was subsequently calculated using the Cheng-Prusoff equation.

The subject of experiment [3] is C57BL/6J mice. Briefly: Fear extinction paradigm (PTSD mouse model). Format: in vivo. The text has this:
Effective PTSD treatments facilitate the disassociation between a traumatic memory and the patient's fear response, making cues for the traumatic memory evoke less of a fear response. This is modeled in the mouse fear extinction paradigm (see FIG. 9A) which takes place over 3 days. On day 1 (fear conditioning), mice are trained to acquire a “traumatic memory,” namely associating the conditioned stimulus (CS, tone) to the unconditioned stimulus (US, foot shock). On day 2 (extinction training), they are trained to forget the traumatic memory association by presenting the CS 6 times (with no US) in a novel environment. On day 3 (extinction recall), the mice are “asked” if that tone (CS) still elicits a fearful response, as measured by the time spent freezing when the tone is presented. Less time freezing means better extinction recall. Drugs that improve extinction recall reduce freezing time on day 3, and, therefore, show potential as a PTSD treatment.
Methods: Cued fear conditioning was performed in C57BL/6J mice. On day 1, animals were placed in the chambers and presented with a training session (CS-US pairing). The training consisted of a 2-minute habituation followed by a 30-second, 80 dB tone; during the last 2 seconds of the tone animals received a 1 mA foot shock. This US-CS procedure occurred once for a total of one paired presentation of tone and shock. Freezing behavior (immobility) was recorded in 5-10-see intervals during the session. Percent baseline freezing behavior was determined in the 2-minute habituation period. On day 3, animals were placed in context B, in which tactile and odor cues differed from context A. Following a 2 minute acclimation period animals received 4×30 sec presentations of the CS (tone) in the absence of the US (footshock), with a 45 sec interval between presentations. Freezing was recorded in 5-10-see intervals to measure baseline freezing response to the altered context, and freezing response to each tone cue presentation. […] On day 4 (Post-Extinction Testing in Drug-Free State), animals were placed in Context B. Following a 2 min acclimation period, animals received 4×30 sec extinction tone duration presentations of the CS (tone) in the absence of the US (footshock), with a 45 sec interval between presentations. Freezing was recorded in 5-10-see intervals to measure baseline freezing response to the altered context, and freezing response to each tone cue presentation.

The target of experiment [4] is SERT (Rattus norvegicus, UniProt P31652). Put plainly: [3H]5HT uptake saturation curves with or without methylone. Format: biochemical. The text has this: If high concentrations of [^3H] […] Three hot saturation curves were run with the [^3H]
For experiment [5], the target named is T2, 168 GPCRs (Homo sapiens, UniProt P14416).
T2 construct: host or cells: PathHunter cell lines
Briefly: β-arrestin GPCR screen (PathHunter/GPCRmax), agonist mode. Format: cell-based. Conditions: GPCR DRD2L; Agonist mode; 10 uM. How it is done:
(§1) For agonist determination, cells were incubated with sample to induce response. […] Vehicle concentration was 1%.

For experiment [6], the target named is T3, 168 GPCRs (Homo sapiens, UniProt P25025).
T3 construct: host or cells: PathHunter cell lines
The description is as above. In kind it is cell-based. The conditions noted are these: GPCR CXCR2; Agonist mode; 10 uM. How it is done:
as §1

Experiment [7] addresses T4, 168 GPCRs (Homo sapiens, UniProt O95977).
T4 construct: host or cells: PathHunter cell lines
The experiment is described as above. In kind it is cell-based. The conditions noted are these: GPCR EDG6; Agonist mode; 10 uM. The procedure:
as §1

For experiment [8], the target named is T5, 168 GPCRs (Homo sapiens, UniProt P49682).
T5 construct: host or cells: PathHunter cell lines
Described as above. Format: cell-based. Conditions: GPCR CXCR3; Agonist mode; 10 uM. How it is done: as §1

Experiment [9] addresses T6, 168 GPCRs (Homo sapiens, UniProt P33032).
T6 construct: host or cells: PathHunter cell lines
The experiment is described as above. In kind it is cell-based. The procedure:
as §1

The target of experiment [10] is T7, 168 GPCRs (Homo sapiens, UniProt P28222).
T7 construct: host or cells: PathHunter cell lines
The description is as above. In kind it is cell-based. The procedure:
as §1

For experiment [11], the target named is T8, 168 GPCRs (Homo sapiens, UniProt O95136).
T8 construct: host or cells: PathHunter cell lines
Described as above. Format: cell-based. Conditions: GPCR EDG5; Agonist mode; 10 uM. How it is done: as §1

The target of experiment [12] is T9, 168 GPCRs (Homo sapiens, UniProt P32246).
T9 construct: host or cells: PathHunter cell lines
The description is as above. Format: cell-based. The conditions noted are these: CCR1; Agonist; 1 uM. How it is done:
as §1

For experiment [13], the target named is T10, 168 GPCRs (Homo sapiens, UniProt P32238).
T10 construct: host or cells: PathHunter cell lines
The description is as above. In kind it is cell-based. The conditions noted are these: CCKAR; Agonist; 10 uM. The procedure:
as §1

Experiment [14] addresses T11, 168 GPCRs (Homo sapiens, UniProt P46092).
T11 construct: host or cells: PathHunter cell lines
The experiment is described as above. Conditions: CCR10; Agonist; 10 uM. In kind it is cell-based. The procedure: as §1

In experiment [15] the target is T12, 168 GPCRs (Homo sapiens, UniProt Q16602).
T12 construct: host or cells: PathHunter cell lines
The description is as above. Format: cell-based. The conditions noted are these: CALCRL-RAMP3; Agonist; 10 uM. The procedure:
as §1

Experiment [16] has as its target T13, 168 GPCRs (Homo sapiens, UniProt Q96LB1).
T13 construct: host or cells: PathHunter cell lines
The experiment is described as above. In kind it is cell-based. The conditions noted are these: GPCR MRGPRX2; Agonist mode; 10 uM. The procedure: as §1

Experiment [17] addresses T14, 168 GPCRs (Homo sapiens, UniProt Q96P65).
T14 construct: host or cells: PathHunter cell lines
Described as above. In kind it is cell-based. Conditions: GPR103; Agonist; 1 uM. The procedure:
as §1

T6 sequence (P33032 whole entry): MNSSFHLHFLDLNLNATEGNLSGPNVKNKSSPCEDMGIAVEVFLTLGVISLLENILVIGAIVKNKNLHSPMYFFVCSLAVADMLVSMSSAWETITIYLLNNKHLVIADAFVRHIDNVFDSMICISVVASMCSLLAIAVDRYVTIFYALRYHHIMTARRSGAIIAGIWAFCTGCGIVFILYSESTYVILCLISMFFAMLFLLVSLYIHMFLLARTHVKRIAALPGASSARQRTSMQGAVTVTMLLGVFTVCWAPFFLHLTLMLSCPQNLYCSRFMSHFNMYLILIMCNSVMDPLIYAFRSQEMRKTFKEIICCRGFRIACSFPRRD
T7 sequence (P28222 whole entry): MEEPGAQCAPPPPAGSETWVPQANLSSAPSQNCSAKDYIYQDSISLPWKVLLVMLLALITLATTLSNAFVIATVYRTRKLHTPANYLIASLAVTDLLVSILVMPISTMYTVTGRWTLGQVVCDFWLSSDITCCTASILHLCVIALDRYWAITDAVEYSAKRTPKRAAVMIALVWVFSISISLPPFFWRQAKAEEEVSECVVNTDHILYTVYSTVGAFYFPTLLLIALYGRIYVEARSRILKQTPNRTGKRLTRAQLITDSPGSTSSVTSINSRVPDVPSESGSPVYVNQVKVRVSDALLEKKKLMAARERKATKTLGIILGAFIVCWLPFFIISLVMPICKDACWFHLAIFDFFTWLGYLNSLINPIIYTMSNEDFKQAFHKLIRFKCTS
SERT, sequence (P31652 whole entry): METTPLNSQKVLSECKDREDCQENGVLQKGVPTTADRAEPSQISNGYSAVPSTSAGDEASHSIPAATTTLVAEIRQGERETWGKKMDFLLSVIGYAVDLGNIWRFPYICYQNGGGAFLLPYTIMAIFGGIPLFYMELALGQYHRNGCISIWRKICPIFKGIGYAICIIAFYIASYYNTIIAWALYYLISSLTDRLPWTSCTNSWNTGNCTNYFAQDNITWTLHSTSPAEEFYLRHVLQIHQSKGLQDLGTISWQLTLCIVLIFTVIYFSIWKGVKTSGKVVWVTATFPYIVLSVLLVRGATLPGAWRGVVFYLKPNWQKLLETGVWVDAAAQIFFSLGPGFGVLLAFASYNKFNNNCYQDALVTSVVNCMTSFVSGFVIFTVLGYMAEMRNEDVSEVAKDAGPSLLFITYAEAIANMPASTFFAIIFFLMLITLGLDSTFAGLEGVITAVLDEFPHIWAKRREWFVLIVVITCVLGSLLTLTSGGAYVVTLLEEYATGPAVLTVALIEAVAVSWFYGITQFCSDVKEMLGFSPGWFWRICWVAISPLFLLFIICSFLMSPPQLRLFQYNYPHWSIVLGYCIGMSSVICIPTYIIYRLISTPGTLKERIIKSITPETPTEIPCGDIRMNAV
T5 sequence (P49682 whole entry): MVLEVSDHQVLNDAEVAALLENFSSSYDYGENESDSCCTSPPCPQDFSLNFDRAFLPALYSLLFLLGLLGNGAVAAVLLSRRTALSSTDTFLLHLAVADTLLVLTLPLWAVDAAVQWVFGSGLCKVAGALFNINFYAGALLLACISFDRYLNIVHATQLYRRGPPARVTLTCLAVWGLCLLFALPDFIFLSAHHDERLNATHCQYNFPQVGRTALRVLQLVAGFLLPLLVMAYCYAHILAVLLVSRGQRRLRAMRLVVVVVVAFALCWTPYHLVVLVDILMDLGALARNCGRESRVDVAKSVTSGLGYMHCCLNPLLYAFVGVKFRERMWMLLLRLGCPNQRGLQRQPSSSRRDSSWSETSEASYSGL
T9 sequence (P32246 whole entry): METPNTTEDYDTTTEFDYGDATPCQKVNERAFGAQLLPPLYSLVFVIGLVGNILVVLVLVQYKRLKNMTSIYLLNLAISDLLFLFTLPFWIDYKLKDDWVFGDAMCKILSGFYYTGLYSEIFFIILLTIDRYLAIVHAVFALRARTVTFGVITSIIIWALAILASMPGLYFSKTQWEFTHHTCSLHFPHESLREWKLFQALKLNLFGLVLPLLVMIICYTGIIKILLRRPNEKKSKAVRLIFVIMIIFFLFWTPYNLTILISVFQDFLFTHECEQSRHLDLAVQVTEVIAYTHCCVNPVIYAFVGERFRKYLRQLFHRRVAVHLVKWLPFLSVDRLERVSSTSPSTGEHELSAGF
T12 sequence (Q16602 23-461): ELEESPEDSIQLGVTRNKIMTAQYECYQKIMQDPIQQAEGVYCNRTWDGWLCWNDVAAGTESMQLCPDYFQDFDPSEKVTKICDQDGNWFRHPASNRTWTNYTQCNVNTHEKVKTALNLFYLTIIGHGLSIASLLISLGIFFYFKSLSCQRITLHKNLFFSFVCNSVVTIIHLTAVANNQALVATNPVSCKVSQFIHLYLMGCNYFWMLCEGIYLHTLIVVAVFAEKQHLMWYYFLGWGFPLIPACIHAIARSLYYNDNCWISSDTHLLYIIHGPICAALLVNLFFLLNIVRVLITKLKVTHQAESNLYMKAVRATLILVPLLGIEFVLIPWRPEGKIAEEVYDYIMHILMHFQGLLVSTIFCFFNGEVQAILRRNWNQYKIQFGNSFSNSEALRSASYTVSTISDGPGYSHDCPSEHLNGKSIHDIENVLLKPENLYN
T8 sequence (O95136 whole entry): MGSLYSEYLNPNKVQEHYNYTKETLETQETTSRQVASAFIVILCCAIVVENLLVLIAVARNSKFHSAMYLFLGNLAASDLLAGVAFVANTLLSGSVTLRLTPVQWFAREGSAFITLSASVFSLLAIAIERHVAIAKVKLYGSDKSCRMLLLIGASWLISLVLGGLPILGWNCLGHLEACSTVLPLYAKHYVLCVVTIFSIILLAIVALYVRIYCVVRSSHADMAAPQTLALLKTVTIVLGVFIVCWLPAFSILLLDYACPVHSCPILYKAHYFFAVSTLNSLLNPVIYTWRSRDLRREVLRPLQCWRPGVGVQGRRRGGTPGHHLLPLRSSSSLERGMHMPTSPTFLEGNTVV
T10 sequence (P32238 whole entry): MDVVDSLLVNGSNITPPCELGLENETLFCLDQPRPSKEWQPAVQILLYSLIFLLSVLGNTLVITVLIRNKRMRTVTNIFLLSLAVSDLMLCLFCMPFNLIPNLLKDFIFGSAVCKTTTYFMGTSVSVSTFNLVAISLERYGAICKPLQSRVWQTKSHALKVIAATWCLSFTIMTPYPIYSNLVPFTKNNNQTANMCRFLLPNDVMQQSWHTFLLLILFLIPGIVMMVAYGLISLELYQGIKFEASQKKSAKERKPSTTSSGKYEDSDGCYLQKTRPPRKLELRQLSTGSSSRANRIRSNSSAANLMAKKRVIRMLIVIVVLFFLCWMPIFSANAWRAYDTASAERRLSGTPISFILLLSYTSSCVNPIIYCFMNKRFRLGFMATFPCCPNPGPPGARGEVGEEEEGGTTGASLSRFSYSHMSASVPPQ
T13 sequence (Q96LB1 whole entry): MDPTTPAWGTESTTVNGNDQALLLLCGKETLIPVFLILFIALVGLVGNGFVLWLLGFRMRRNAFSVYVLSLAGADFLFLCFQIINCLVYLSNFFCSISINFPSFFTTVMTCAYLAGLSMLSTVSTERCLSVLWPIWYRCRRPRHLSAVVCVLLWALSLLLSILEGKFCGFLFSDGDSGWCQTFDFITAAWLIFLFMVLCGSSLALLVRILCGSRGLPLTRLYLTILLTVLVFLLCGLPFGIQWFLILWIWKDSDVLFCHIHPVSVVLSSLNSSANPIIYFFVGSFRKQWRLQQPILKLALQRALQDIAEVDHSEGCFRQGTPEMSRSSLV
T14 sequence (Q96P65 whole entry): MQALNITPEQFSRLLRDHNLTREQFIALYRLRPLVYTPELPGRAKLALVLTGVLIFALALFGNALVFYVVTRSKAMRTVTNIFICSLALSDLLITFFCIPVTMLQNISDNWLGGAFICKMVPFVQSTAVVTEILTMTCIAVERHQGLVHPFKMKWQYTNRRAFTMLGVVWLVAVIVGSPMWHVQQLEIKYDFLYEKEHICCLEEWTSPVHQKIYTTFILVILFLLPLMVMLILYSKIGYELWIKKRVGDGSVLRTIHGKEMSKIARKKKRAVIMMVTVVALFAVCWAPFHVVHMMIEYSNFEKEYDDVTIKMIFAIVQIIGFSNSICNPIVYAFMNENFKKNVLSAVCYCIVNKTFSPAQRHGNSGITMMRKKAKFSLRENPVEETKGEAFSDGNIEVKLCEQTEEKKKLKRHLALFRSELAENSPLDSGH
T11 sequence (P46092 whole entry): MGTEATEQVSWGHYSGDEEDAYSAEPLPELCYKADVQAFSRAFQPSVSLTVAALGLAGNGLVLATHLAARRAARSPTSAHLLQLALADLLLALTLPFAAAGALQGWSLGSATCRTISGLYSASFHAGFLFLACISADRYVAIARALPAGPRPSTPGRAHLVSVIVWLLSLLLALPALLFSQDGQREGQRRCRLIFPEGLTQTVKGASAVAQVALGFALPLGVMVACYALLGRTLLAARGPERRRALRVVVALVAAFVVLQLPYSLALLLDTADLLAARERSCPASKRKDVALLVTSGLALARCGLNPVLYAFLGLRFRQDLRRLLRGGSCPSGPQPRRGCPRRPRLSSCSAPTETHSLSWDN
T3 sequence (P25025 whole entry): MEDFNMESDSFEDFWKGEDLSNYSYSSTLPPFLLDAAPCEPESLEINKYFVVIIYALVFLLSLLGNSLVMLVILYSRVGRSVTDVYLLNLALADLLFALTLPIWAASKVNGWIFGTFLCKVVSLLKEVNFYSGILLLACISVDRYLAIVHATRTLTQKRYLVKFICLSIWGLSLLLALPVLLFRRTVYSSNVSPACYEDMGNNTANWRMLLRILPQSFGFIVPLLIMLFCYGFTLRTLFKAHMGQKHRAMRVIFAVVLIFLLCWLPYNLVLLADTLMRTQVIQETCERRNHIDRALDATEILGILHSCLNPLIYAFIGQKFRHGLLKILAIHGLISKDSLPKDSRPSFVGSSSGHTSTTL

On to `CNC(C)C(=O)c1ccc2c(c1)OCO2` (centres unmarked) [methylone, 3,4-methylenedioxy-N-methylcathinone], for which the paw withdrawal thresholds entry in experiment [1] was “significantly increased paw withdrawal thresholds”. Moreover, in [2], the Ki (in general, the equilibrium dissociation constant of an inhibitor or competing ligand from its target) is 4.15 µM. In addition, in experiment [3] (Example 35, all doses (10, 20, 30 mg/kg IP)), the “fear extinction training on day 3” value is “significantly improved fear extinction training”. The “effect on fear extinction training and testing” value in [3] (Example 35, methylone 30 mg/kg IP 30 min before extinction training on day 3) was “rapid, robust and long-lasting beneficial effect”. Also, the “enhancement of fear extinction recall vs saline” value in experiment [3] (methylone 30 mg/kg IP 30 min before extinction training, day 3) was ~60%. Besides, the “locomotion during testing session” value in experiment [3] (methylone 30 mg/kg IP, day 3) is reported as “no differences between groups in locomotion”. Also, the “effect on Bmax of [3H]5HT uptake” value in experiment [4] is listed as “no decrease in Bmax”. In experiment [4] (two concentrations of methylone), the “type of interaction at the SERT” value is reported as “competitive”. The activity at 10 µM was -0.7% in experiment [5]; -2.6% in [6]; -0.3% in [7]; ~1% in experiment [8]; -8.9% in experiment [9] (GPCR MC5R, Agonist mode, 10 uM); 8.7% in [10] (GPCR HTR1B, Agonist mode, 10 uM). Also, the activity at 10 µM is -3.7% in experiment [11]; -0.3% in experiment [13]; ~-1% in experiment [14]; -2.2% in experiment [15]; 0.7% in experiment [16]. Further, the activity at 1 µM in experiment [9] (MC5R, Agonist, 1 uM) is ~-7%; in experiment [10] (HTR1B, Agonist, 1 uM) it was ~3%; in [12], ~-2%; in experiment [17] it was ~0%.
